Format in all cases: in vivo
Assay [1] relates to Ovariectomised adult female Sprague Dawley rats. Description: Female rat sexual proceptivity test (time investigating male vs female stimulus). The settings on record: Example 1; i.p., 3 and 10mg/kg in 50% 2-hydroxypropyl-β-cyclodextrin, 1h before tests.
The subject of assay [2] is Female New Zealand rabbits. Description: Pelvic nerve-stimulated female genital blood flow, anaesthetised rabbit model of sexual arousal. The procedure:
Female New Zealand rabbits (~2.5kg) were pre-medicated with a combination of Medetomidine (Domitor®) 0.5ml/kg i.m., and Ketamine (Vetalar®) 0.25ml/kg i.m. whilst maintaining oxygen intake via a face mask. The rabbits were tracheotomised using a Portex™ uncuffed endotracheal tube 3 ID., connected to ventilator and maintained at a ventilation rate of 30-40 breaths per minute, with an approximate tidal volume of 18-20 ml, and a maximum airway pressure of 10 cm H2O. Anaesthesia was then switched to Isoflurane and ventilation continued with O2 at 21/min. The right marginal ear vein was cannulated using a 23G or 24G catheter, and Lactated Ringer solution perfused at 0.5ml/min. The rabbit was maintained at 3% Isoflurane during invasive surgery, dropping to 2% for maintenance anaesthesia.
The left groin area of the rabbit was shaved and a vertical incision was made approximately 5cm in length along the thigh. The femoral vein and artery were exposed, isolated and then cannulated with a PVC catheter (17G) for the infusion of drugs and compounds. Cannulation was repeated for the femoral artery, inserting the catheter to a depth of 10cm to ensure that the catheter reached the abdominal aorta. This arterial catheter was linked to a Gould system to record blood pressure. Samples for blood gas analysis were also taken via the arterial catheter. Systolic and diastolic pressures were measured, and the mean arterial pressure calculated using the formula (diastolic x2 + systolic) ö3. Heart rate was measured via the pulse oxymeter and Po-ne-mah data acquisition software system (Ponemah Physiology Platform, Gould Instrument Systems Inc). A ventral midline incision was made into the abdominal cavity. The incision was about 5cm in length just above the pubis. The fat and muscle was bluntly dissected away to reveal the hypogastric nerve which runs down the body cavity. It was essential to keep close to the side curve of the pubis wall in order to avoid damaging the femoral vein and artery which lie above the pubis. The sciatic and pelvic nerves lie deeper and were located after further dissection on the dorsal side of the rabbit. Once the sciatic nerve is identified, the pelvic nerve was easily located. The term pelvic nerve is loosely applied; anatomy books on the subject fail to identify the nerves in sufficient detail. However, stimulation of the nerve causes an increase in vaginal and clitoral blood flow, and innervation of the pelvic region. The pelvic nerve was freed away from surrounding tissue and a Harvard bipolar stimulating electrode was placed around the nerve. […] A frequency response curve was determined at the start of each experiment in order to determine the optimum frequency to use as a sub-maximal response, normally 4Hz. […]

Assay [3] has as its system Ovariectomised adult female Sprague Dawley rats. The assay can be described thus: Female rat sexual receptivity test (lordosis quotient, LQ). The settings on record: Example 2; after vs before administration (paired t test); Compound (1) 10mg/kg i.p. 1h; quinelorane 6.25µg/kg s.c. 90min. How it is done: Ovariectomised adult female Sprague Dawley rats (180-200g, from Charles River) were housed in groups of 6 in a reversed lighting system of 12h light:dark (lights off 7.00-19.00h). Two weeks after ovariectomy they were used for sexual activity tests. The experiments started at least 5h into the dark period.
It was administered intraperitoneally (i.p.) at a dose of 10mg/kg, in a dosing volume of 1ml/kg. […] Forty eight hours before testing, ovariectomised female rats (as described above), were primed with 5µg oestradiol benzoate dissolved in corn oil and injected subcutaneously. […] The females were placed with a series of vigorous male rats and subjected to 10 mounts.
The lordotic response of the animal was recorded and expressed as a percentage of the mounts (i.e. lordosis quotient, LQ), as previously described. Animals showing LQ<20 were considered non-receptive and were included in the study. Each rat was tested prior to administration of the compound and then tested similarly post-injection.
The above compound was dissolved in PEG200 vehicle and administered orally. […] Both compounds were administered in a 1ml/kg volume.
Forty eight hours before tests, the animals were primed with 5µg oestradiol benzoate (Sigma Chemical. Co. Ltd., UK) dissolved in corn oil and injected subcutaneously. The females were placed with a series of vigorous male rats and subjected to 10 mounts. The lordotic response of the animal was recorded and expressed as a percentage of the mounts (i.e. lordosis quotient, LQ). […] Animals showing higher LQ were not included in the study. Each rat was tested prior to administration of the compound and then tested similarly at 1h and 90min post-injection of the above compound or quinelorane respectively.

Turning to `COc1ccc(C2(CNC(=O)[C@](C)(Cc3c[nH]c4ccccc34)NC(=O)Nc3ccc([N+](=O)[O-])cc3)CCCCC2)nc1` [Compound (1), (S) 3-(1H-Indol-3-yl)-N-[1-(5-methoxy-pyridin-2-yl)-cyclohexyl-methyl]-2-methyl-2-[3-(4-nitro-phenyl)-ureido]-propionamide], in assay [1], the “MED (increase in percentage of time spent investigating the male stimulus)” value was determined as 10 mg/kg. In assay [2] (15mg/kg sc), the “basal genital blood flow in the absence of PNS” value was “no effect”. For the same compound, the “pelvic-nerve stimulated (PNS) increases in genital (vaginal and clitoral) blood flow” value in assay [2] (15mg/kg sc in 50% β-cyclodextrin in saline) is “potent enhancer”. Further, the “lordosis quotient (LQ)” value in assay [3] is given as “significant (P<0.05) stimulatory effect on the LQ”.

The values are drawn from patent EP1333824B1, “TREATMENT OF SEXUAL DYSFUNCTION WITH BOMBESIN RECEPTOR ANTAGONISTS” (Warner-Lambert Company LLC, priority 2000, dated 2002).
